For series [1] the following is noted: human fraction absorbed; rounded to two significant figures; ref [17]; cited from earlier work.
Series [2] has as its system Caco-2 cells. Briefly: Bidirectional transport study with assay-ready Caco-2 cells, 7-day versus 21-day cultivation (Figure S2). The conditions noted are these: ER = Papp,BA/Papp,AB.
Assay in series [3]: as above
The conditions noted are these: human, Caco-2, pH 7.4.

[4] abbreviates: Caco-2 cells maintained 21 days on transwell plates.

In the case of `N=C(N)NC(=O)c1nc(Cl)c(N)nc1N` [Amiloride], in series [1], the “Observed Human fa” value is listed as 0.53. With `CC(C)CN(C[C@@H](O)[C@H](Cc1ccccc1)NC(=O)O[C@H]1CCOC1)S(=O)(=O)c1ccc(N)cc1` [Amprenavir], the “Observed Human fa” value in series [1] is given as 0.76. Consider `Cc1cc(=O)n(-c2ccccc2)n1C` [Antipyrine], for which the “Observed Human fa” value in series [1] is listed as 0.98. As to `CC[C@H]1OC(=O)[C@H](C)[C@@H](O[C@H]2C[C@@](C)(OC)[C@@H](O)[C@H](C)O2)[C@H](C)[C@@H](O[C@@H]2O[C@H](C)C[C@H](N(C)C)[C@H]2O)[C@](C)(O)C[C@@H](C)CN(C)[C@H](C)[C@@H](O)[C@]1(C)O` [Azithromycin], the “Observed Human fa” value in series [1] is 0.43. For `CC(C)(C)NC(=O)N[C@H](C(=O)N1C[C@H]2[C@@H]([C@H]1C(=O)NC(CC1CCC1)C(=O)C(N)=O)C2(C)C)C(C)(C)C` (stereo partly shown) [Boceprevir], the “Observed Human fa” value in series [1] is 0.92. `COc1ccccc1Oc1c(NS(=O)(=O)c2ccc(C(C)(C)C)cc2)nc(-c2ncccn2)nc1OCCO` [Bosentan]: the “Observed Human fa” value in series [1] was 0.70.

For the compound `O=C(O)COCCN1CCN(C(c2ccccc2)c2ccc(Cl)cc2)CC1` (stereo not shown) [Cetirizine], in series [1], the “Observed Human fa” value is 0.73. For `CN/C(=N/CCSCc1nc[nH]c1C)NC#N` [Cimetidine], the “efflux ratio (ER)” value in series [2] (setting [4]) was over 2. For the same compound, in series [3], the efflux ratio at 60 min was over 2.

As to `C[C@]12CC[C@@H]3c4ccc(OS(=O)(=O)O)cc4CC[C@H]3[C@@H]1CCC2=O` [Compound E3S, estrone-3-sulfate], the “efflux ratio (ER)” value in series [2] (Caco-2 cells maintained 7 days on transwell plates) and in series [2] (setting [4]) was over 2 in each case. As to `C[C@]12C[C@H](O)[C@H]3[C@@H](CCC4=CC(=O)CC[C@@]43C)[C@@H]1CC[C@@H]2C(=O)CO` [Corticosterone], the “Observed Human fa” value in series [1] is listed as 1.0. Turning to `O=C(O)Cc1ccccc1Nc1c(Cl)cccc1Cl` [Diclofenac], the “Observed Human fa” value in series [1] was 0.97. As to `OCCN(CCO)c1nc(N2CCCCC2)c2nc(N(CCO)CCO)nc(N3CCCCC3)c2n1` [Dipyridamole], the “Observed Human fa” value in series [1] is on record as 0.56. `CN(C)CCC=C1c2ccccc2COc2ccccc21` [Doxepin]: the “Observed Human fa” value in series [1] was 0.76.

For `NS(=O)(=O)c1cc(C(=O)O)c(NCc2ccco2)cc1Cl` [Furosemide], the “Observed Human fa” value in series [1] is listed as 0.61. Turning to `COc1ccc2c(c1)C(=O)N(CCc1ccc(S(=O)(=O)NC(=O)NC3CCCCC3)cc1)C(=O)C2(C)C` [Gliquidone], the “Observed Human fa” value in series [1] is 0.95. On to `CCN(CCO)CCCC(C)Nc1ccnc2cc(Cl)ccc12` (stereo not shown) [Hydroxychloroquine], for which the “Observed Human fa” value in series [1] is given as 0.90. In the case of `CC(C)(C)NC(=O)[C@@H]1CN(Cc2cccnc2)CCN1C[C@@H](O)C[C@@H](Cc1ccccc1)C(=O)N[C@H]1c2ccccc2C[C@H]1O` [Indinavir], the “Observed Human fa” value in series [1] is on record as 0.63. Take `CC(=O)N1CCN(c2ccc(OCC3COC(Cn4ccnc4)(c4ccc(Cl)cc4Cl)O3)cc2)CC1` (stereo not shown) [Ketoconazole]: in series [1], the “Observed Human fa” value is on record as 0.76.

Regarding `Nc1nnc(-c2cccc(Cl)c2Cl)c(N)n1` [Lamotrigine], the “Observed Human fa” value in series [1] is 0.98. Regarding `Nc1cccc2c1CN(C1CCC(=O)NC1=O)C2=O` (stereo not shown) [Lenalidomide], the “Observed Human fa” value in series [1] is 0.90. For the compound `CCOC(=O)N1CCC(=C2c3ccc(Cl)cc3CCc3cccnc32)CC1` [Loratadine], the “Observed Human fa” value in series [1] is recorded as 0.90. Take `CN(Cc1cnc2nc(N)nc(N)c2n1)c1ccc(C(=O)N[C@@H](CCC(=O)O)C(=O)O)cc1` [Methotrexate]: the “Observed Human fa” value in series [1] is listed as 0.64. For the compound `CCN(CC)CCNC(=O)c1cc(Cl)c(N)cc1OC` [Metoclopramide], in series [1], the “Observed Human fa” value is given as 0.89. For the compound `Cc1cccc(C)c1OCC(C)N` (stereo not shown) [Mexiletine], the “Observed Human fa” value in series [1] is 0.99. Turning to `O=C(NCCN1CCOCC1)c1ccc(Cl)cc1` [Moclobemide], in series [1], the “Observed Human fa” value is on record as 0.85. For `CNS(=O)(=O)CCc1ccc2[nH]cc(C3CCN(C)CC3)c2c1` [Naratriptan], the “Observed Human fa” value in series [1] is reported as 0.70. Take `CN1CCC[C@H]1c1cccnc1` [Nicotine]: the “Observed Human fa” value in series [1] is reported as 1.0. Take `COCCOC(=O)C1=C(C)NC(C)=C(C(=O)OC(C)C)C1c1cccc([N+](=O)[O-])c1` (stereo not shown) [Nimodipine]: the “Observed Human fa” value in series [1] is on record as 1.0.

Take `CNCCC=C1c2ccccc2CCc2ccccc21` [Nortriptyline]: the “Observed Human fa” value in series [1] is listed as 1.0. Regarding `Cc1nccn1CC1CCc2c(c3ccccc3n2C)C1=O` (stereo not shown) [Ondansetron], in series [1], the “Observed Human fa” value is recorded as 1.0. As for `CCOC(=O)C1=C[C@@H](OC(CC)CC)[C@H](NC(C)=O)[C@@H](N)C1` [Oseltamivir], the “Observed Human fa” value in series [1] is listed as 0.75. Regarding `Nc1ccc(/N=N/c2ccccc2)c(N)n1` [Phenazopyridine], in series [1], the “Observed Human fa” value was 0.90. Turning to `O=C1NC(=O)C(c2ccccc2)(c2ccccc2)N1` [Phenytoin], in series [1], the “Observed Human fa” value was 0.93. For the compound `CNC(=O)Oc1ccc2c(c1)[C@]1(C)CCN(C)[C@@H]1N2C` [Physostigmine], in series [1], the “Observed Human fa” value was 0.050. For `COc1cc2nc(N3CCN(C(=O)c4ccco4)CC3)nc(N)c2cc1OC` [Prazosin], in series [2] (setting [4]), the “efflux ratio (ER)” value was over 2. Moreover, the efflux ratio at 60 min in series [3] was over 2.

With `CNC(=C[N+](=O)[O-])NCCSCc1ccc(CN(C)C)o1` [Ranitidine], the “Observed Human fa” value in series [1] was 0.56. As to `CO[C@H]1/C=C/O[C@@]2(C)Oc3c(C)c(O)c4c(c3C2=O)C2=NC3(CCN(CC(C)C)CC3)NC2=C(NC(=O)/C(C)=C\C=C\[C@H](C)[C@H](O)[C@@H](C)[C@@H](O)[C@@H](C)[C@H](OC(C)=O)[C@@H]1C)C4=O` [Rifabutin], the “Observed Human fa” value in series [1] is 0.53. With `CN(C)CCc1c[nH]c2ccc(Cn3cncn3)cc12` [Rizatriptan], in series [1], the “Observed Human fa” value is listed as 0.90. With `CN(CCOc1ccc(CC2SC(=O)NC2=O)cc1)c1ccccn1` (stereo not shown) [Rosiglitazone], the “Observed Human fa” value in series [1] is 1.0. Take `CC(C)c1nc(N(C)S(C)(=O)=O)nc(-c2ccc(F)cc2)c1/C=C/[C@@H](O)C[C@@H](O)CC(=O)O` [Rosuvastatin]: the “Observed Human fa” value in series [1] is on record as 0.35. For the compound `CC[C@H]1OC(=O)[C@H](C)[C@@H](O[C@H]2C[C@@](C)(OC)[C@@H](O)[C@H](C)O2)[C@H](C)[C@@H](O[C@@H]2O[C@H](C)C[C@H](N(C)C)[C@H]2O)[C@](C)(O)C[C@@H](C)/C(=N\OCOCCOC)[C@H](C)[C@@H](O)[C@]1(C)O` [Roxithromycin], the “Observed Human fa” value in series [1] is on record as 0.86. With `C#CCN(C)[C@H](C)Cc1ccccc1` [Selegiline], the “Observed Human fa” value in series [1] is given as 1.0. With `O=C(O)c1cc(/N=N/c2ccc(S(=O)(=O)Nc3ccccn3)cc2)ccc1O` [Sulfasalazine], the “efflux ratio (ER)” value in series [2] (setting [4]) is over 2. Also, the efflux ratio at 60 min in series [3] is over 2. Also, in series [1], the “Observed Human fa” value is recorded as 0.33. Consider `CNS(=O)(=O)Cc1ccc2[nH]cc(CCN(C)C)c2c1` [Sumatriptan], for which the “Observed Human fa” value in series [1] was 0.58. Turning to `CCCc1nc2c(C)cc(-c3nc4ccccc4n3C)cc2n1Cc1ccc(-c2ccccc2C(=O)O)cc1` [Telmisartan], in series [1], the “Observed Human fa” value was 0.82. Take `O=c1n(CCCN2CCN(c3cccc(Cl)c3)CC2)nc2ccccn12` [Trazodone]: the “Observed Human fa” value in series [1] is on record as 0.98.

On to `OC(CCN1CCCCC1)(c1ccccc1)C1CCCCC1` (stereo not shown) [Trihexyphenidyl], for which the “Observed Human fa” value in series [1] is given as 1.0. Consider `COc1ccc(C(CN(C)C)C2(O)CCCCC2)cc1` (stereo not shown) [Venlafaxine], for which the “Observed Human fa” value in series [1] is listed as 0.96.

Regarding `O=C1Cc2cc(CCN3CCN(c4nsc5ccccc45)CC3)c(Cl)cc2N1` [Ziprasidone], the “Observed Human fa” value in series [1] is listed as 0.63. In the case of `CN(C)CCc1c[nH]c2ccc(C[C@H]3COC(=O)N3)cc12` [Zolmitriptan], the “Observed Human fa” value in series [1] is 0.92.

The term efflux ratio denotes the permeability from basolateral to apical divided by that in the opposite direction, in the common usage.

These data come from publication PMC11280027, “Conquering the beyond Rule of Five Space with an Optimized High-Throughput Caco-2 Assay to Close Gaps in Absorption Prediction” (Pharmaceutics, 2024).
